Series [1] relates to MZ-CRC-1 medullary thyroid carcinoma cells, harboring a mutated RET-M918T receptor. Kind of series: In Vitro Cell Proliferation Assay (MZ-CRC-1). In kind it is cell-based. The conditions noted are these: Homo sapiens, 144 hours exposure, CellTiterGlo. The method, then:
(§1) In Vitro Cell Proliferation Assay
(§2) To evaluate the antiproliferative activity of a compound of formula (I) the following human cell lines were used: A2780 ovarian and MCF-7 breast carcinoma; TT and MZ-CRC-1 medullary thyroid carcinoma, harboring a mutated RET-C634W and RET-M918T receptor respectively, LC-2/ad Non Small Cell Lung Carcinoma, expressing the CCDC6-RET fusion gene product. Exponentially growing cells were seeded and incubated at 37° C. in a humidified 5% C02 atmosphere using appropriate medium supplemented with 10% Fetal Bovine Serum. 24 hours following cell plating, scalar doses of the compounds dissolved in 0.1% DMSO were added to the medium and cells were exposed to drugs for either 72 hours (MCF-7 and A2780) or 144 hours (TT, MZ-CRC-1 and LC-2/ad), according to their different proliferation rate. At the end of treatment, cell proliferation was determined by an intracellular ATP monitoring system (CellTiterGlo—Promega), following manufacturer's instructions, and using an Envision instrument (PerkinElmer) as reader. Data obtained from compound versus vehicle treated cells were compared using Assay Explorer (Symyx Technologies Inc) software. IC50 values were calculated using sigmoidal interpolation curve fitting.
(In general: ATP-based viability assays read luminescence as a measure of living cells.)

For series [2], the system named is LC-2/ad Non Small Cell Lung Carcinoma cells, expressing the CCDC6-RET fusion gene product. The series can be described thus: In Vitro Cell Proliferation Assay (LC-2/ad). The conditions noted are these: Homo sapiens, 144 hours exposure, CellTiterGlo. In kind it is cell-based. The method, then: as §1, §2
Series [3] concerns A2780 ovarian carcinoma cells. The series can be described thus: In Vitro Cell Proliferation Assay (A2780). Type of series: cell-based. As to conditions: Homo sapiens, 72 hours exposure, CellTiterGlo. The method, then:
as §1, §2

For series [4], the system named is TT medullary thyroid carcinoma cells, harboring a mutated RET-C634W receptor. Kind of series: In Vitro Cell Proliferation Assay (TT). In kind it is cell-based. The conditions noted are these: Homo sapiens; 144 hours exposure, CellTiterGlo. The method, then: as §1, §2
A short description of series [5]: High-Throughput Solubility Assay. The conditions noted are these: kinetic from dmso stock; pH 7, aqueous potassium phosphate buffer, nominal 200 μM, 24 h at room temperature. Type of series: physicochemical. The method, then:
High-Throughput Solubility Assay
A nominal 200 μM suspensions/solutions of a compound of formula (I) in aqueous potassium phosphate buffer at pH=7 and aqueous citric acid buffer at pH=3 were prepared on a “Multiscreen-HTS”, 0.2 μm filter plate (Millipore, Billerica, Mass.). These solutions were stirred for 10 min and stored for 24 h at room temperature to pre-saturate the membrane filter and to reach a “pseudo-thermodynamic solubility”. Then the plate was put on a 500 μL 96 multiwell plate containing 200 μL of acetonitrile in each well and centrifuged at 2000 rpm for 5 minutes. The so obtained solutions were then analyzed simultaneously by HPLC-UV with standard solutions for quantification.

Series [6] deals with MCF-7 breast carcinoma cells. Kind of series: In Vitro Cell Proliferation Assay (MCF-7). In kind it is cell-based. The conditions noted are these: Homo sapiens, MCF7; 72 hours exposure, CellTiterGlo. The method, then:
as §1, §2

≈ marks a conversion by molar mass, not a printed value.

For orientation: IC50 means the concentration that inhibits the measured activity by half. For orientation: solubility means the dissolved amount per volume that the medium holds. A lower solubility goes with a poorly soluble substance. In the case of `CCN1CCN(Cc2ccc(NC(=O)Nc3cccc(C#Cc4cnc(N)nc4-c4cc5c(n4C)CCNC5=O)c3)cc2C(F)(F)F)CC1` [Cmpd 8, 1-{3-[2-Amino-4-(1-methyl-4-oxo-4,5,6,7-tetrahydro-1H-pyrrolo[3,2-c]pyridin-2-yl)-pyrimidin-5-ylethynyl]-phenyl}-3-[4-(4-ethyl-piperazin-1-ylmethyl)-3-trifluoromethyl-phenyl]-urea], the IC50 in series [1] amounted to 0.074 µM; in series [2], 0.038 µM; in series [3], 1760 nM; in series [4], 0.002 µM; in series [6] it was 4780 nM. This compound also yielded a solubility at 24 h in series [5] of 6.5 µM (≈ 4.37 µg/mL).

In the case of `CCN1CCN(Cc2ccc(NC(=O)c3cccc(C#Cc4cnc(N)nc4-c4cc5c(n4C)CCNC5=O)c3)cc2C(F)(F)F)CC1` [Cmpd 48, 3-[2-Amino-4-(1-methyl-4-oxo-4,5,6,7-tetrahydro-1H-pyrrolo[3,2-c]pyridin-2-yl)-pyrimidin-5-ylethynyl]-N-[4-(4-ethyl-piperazin-1-ylmethyl)-3-trifluoromethyl-phenyl]-benzamide], the IC50 in series [1] came out at 0.004 µM; in series [2], 0.004 µM; in series [3], 85 nM; in series [4], 0.0005 µM; in series [6], 1840 nM. The same compound gave a solubility at 24 h in series [5] of 26.9 µM (≈ 17.7 µg/mL).

For the compound `CCN1CCN(Cc2ccc(NC(=O)Cc3cccc(C#Cc4cnc(N)nc4-c4cc5c(n4C)CCNC5=O)c3)cc2C(F)(F)F)CC1` [Cmpd 77, 2-{3-[2-Amino-4-(1-methyl-4-oxo-4,5,6,7-tetrahydro-1H-pyrrolo[3,2-c]pyridin-2-yl)-pyrimidin-5-ylethynyl]-phenyl}-N-[4-(4-ethyl-piperazin-1-ylmethyl)-3-trifluoromethyl-phenyl]-acetamide], the IC50 in series [1] came out at 0.023 µM; in series [2] it was 0.003 µM; in series [3], 2820 nM; in series [4] it was 0.002 µM; in series [6], 6650 nM. This compound also returned a solubility at 24 h in series [5] of 23 µM (≈ 15.4 µg/mL).

For `CCN1CCN(Cc2ccc(NC(=O)Cc3cccc(C#Cc4cnc(NC)nc4-c4cc5c(n4C)CCNC5=O)c3)cc2C(F)(F)F)CC1` [Cmpd 78, N-[4-(4-Ethyl-piperazin-1-ylmethyl)-3-trifluoromethyl-phenyl]-2-{3-[2-methylamino-4-(1-methyl-4-oxo-4,5,6,7-tetrahydro-1H-pyrrolo[3,2-c]pyridin-2-yl)-pyrimidin-5-ylethynyl]-phenyl}-acetamide], the IC50 was 0.026 µM in series [1]; 0.014 µM in series [2]; 2220 nM in series [3]; 0.007 µM in series [4]; 2310 nM in series [6]. For the same compound, the solubility at 24 h in series [5] is 1.4 µM (≈ 0.959 µg/mL).

As to `CNc1ncc(C#Cc2cccc(CC(=O)Nc3ccc(CN4CCN(C)CC4)c(C(F)(F)F)c3)c2)c(-c2cc3c(n2C)CCNC3=O)n1` [Cmpd 174, 2-{3-[2-Methylamino-4-(1-methyl-4-oxo-4,5,6,7-tetrahydro-1H-pyrrolo[3,2-c]pyridin-2-yl)-pyrimidin-5-ylethynyl]-phenyl}-N-[4-(4-methyl-piperazin-1-ylmethyl)-3-trifluoromethyl-phenyl]-acetamide], the IC50 in series [1] was 0.015 µM; in series [2], 0.01 µM; in series [3], 1150 nM; in series [4], 0.005 µM. In series [5], the solubility at 24 h came to 3.5 µM (≈ 2.35 µg/mL).

Consider `CNc1ncc(C#Cc2cccc(CC(=O)Nc3ccc(CN4CCN(C(C)C)CC4)c(C(F)(F)F)c3)c2)c(-c2cc3c(n2C)CCNC3=O)n1` [Cmpd 176, N-[4-(4-Isopropyl-piperazin-1-ylmethyl)-3-trifluoromethyl-phenyl]-2-{3-[2-methylamino-4-(1-methyl-4-oxo-4,5,6,7-tetrahydro-1H-pyrrolo[3,2-c]pyridin-2-yl)-pyrimidin-5-ylethynyl]-phenyl}-acetamide], for which the IC50 in series [1] was determined as 0.023 µM; in series [2], 0.02 µM; in series [3] it was 3830 nM; in series [4] it was 0.014 µM. Moreover, the solubility at 24 h in series [5] amounted to 7.6 µM (≈ 5.31 µg/mL).

`CNc1ncc(C#Cc2cc(CC(=O)Nc3ccc(CN4CCN(C)CC4)c(C(F)(F)F)c3)ccc2F)c(-c2cc3c(n2C)CCNC3=O)n1` [Cmpd 190, 2-{4-Fluoro-3-[2-methylamino-4-(1-methyl-4-oxo-4,5,6,7-tetrahydro-1H-pyrrolo[3,2-c]pyridin-2-yl)-pyrimidin-5-ylethynyl]-phenyl}-N-[4-(4-methyl-piperazin-1-ylmethyl)-3-trifluoromethyl-phenyl]-acetamide]: the IC50 in series [1] stood at 0.039 µM; in series [2], 0.051 µM; in series [3], 2310 nM; in series [4] it was 0.008 µM. Moreover, in series [5], the solubility at 24 h stood at 2.9 µM (≈ 2 µg/mL).

Regarding `CCNc1ncc(C#Cc2cccc(CC(=O)Nc3ccc(CN4CCN(C)CC4)c(C(F)(F)F)c3)c2)c(-c2cc3c(n2C)CCNC3=O)n1` [Cmpd 193, 2-{3-[2-Ethylamino-4-(1-methyl-4-oxo-4,5,6,7-tetrahydro-1H-pyrrolo[3,2-c]pyridin-2-yl)-pyrimidin-5-ylethynyl]-phenyl}-N-[4-(4-methyl-piperazin-1-ylmethyl)-3-trifluoromethyl-phenyl]-acetamide], the IC50 in series [1] came to 0.039 µM; in series [2] it was 0.015 µM; in series [3], 910 nM; in series [4] it was 0.016 µM. Moreover, the solubility at 24 h in series [5] is below 1 µM.

The values are drawn from patent US9604980B2, “Substituted pyrimidinyl and pyridinyl-pyrrolopyridinones, process for their preparation and their use as kinase inhibitors” (NERVIANO MEDICAL SCIENCES S.r.l, priority 2012, dated 2017).
